Key:
Assay type in all cases: biochemical
[1] = target: T1, low Km AlDH from rat liver (Rattus norvegicus, UniProt P11884); experiment: Inhibition of mammalian mitochondrial (low Km) AlDH in rat liver preparation; conditions: Example 3, preliminary results, 2 μM concentration
T1 construct: using a preparation from rat liver containing both Low Km and high Km AlDH; from tissue; host or cells: rat liver preparation
T1 sequence (P11884 20-519): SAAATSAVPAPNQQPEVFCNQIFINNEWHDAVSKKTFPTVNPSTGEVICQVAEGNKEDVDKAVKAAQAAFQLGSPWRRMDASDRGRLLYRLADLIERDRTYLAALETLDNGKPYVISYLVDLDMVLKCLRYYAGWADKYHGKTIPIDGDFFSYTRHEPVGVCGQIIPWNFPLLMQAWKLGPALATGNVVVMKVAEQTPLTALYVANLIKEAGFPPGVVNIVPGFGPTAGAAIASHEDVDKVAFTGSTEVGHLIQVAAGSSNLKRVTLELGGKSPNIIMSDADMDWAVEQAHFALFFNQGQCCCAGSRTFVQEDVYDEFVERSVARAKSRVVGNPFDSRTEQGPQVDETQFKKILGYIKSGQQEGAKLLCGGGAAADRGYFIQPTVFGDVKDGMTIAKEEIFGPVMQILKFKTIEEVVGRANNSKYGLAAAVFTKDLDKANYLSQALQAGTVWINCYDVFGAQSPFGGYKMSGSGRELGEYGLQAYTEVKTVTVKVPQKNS

[2] = test system: AlDH of bacterial sources; experiment: Screening of tryptophan metabolites for inhibition of bacterial AlDH activity in vitro; conditions: for % inhibition of AlDH activity: 100 μM concentration, in vitro
Description: Tryptophan and its various metabolites were tested for possible inhibition of activity of AlDH of bacterial sources. The terms “inhibitor of AlDH activity” and the like mean that the activity of AlDH in vivo in the presence of the inhibitor is reduced. In practice, this may be predicted by reference to the inhibitory activity of the compound or composition in vitro.
An enzyme preparation was purchased from Sigma, (Poole, Dorset, UK) and was used for the screening of tryptophan and its metabolites. A number of preliminary experiments were performed to optimise the conditions of the assay, which was performed according to standard experimental conditions published in the literature and well known to those skilled in the art. All assays were performed in triplicate or quadruplicate determinations for both controls (no additions) and tryptophan metabolites.
Tryptophan and its metabolites were first tested at a 100 μM concentration. The tryptophan metabolites screened included the following: […]

[3] = target: T1, low Km AlDH from rat liver; experiment: Inhibition of mammalian mitochondrial (low Km) AlDH in rat liver preparation; conditions: Example 4, rat liver low Km AlDH, 5 μM acetaldehyde
Description: Experiments were therefore performed using a preparation from rat liver in which both the low Km and the high Km enzymes can be measured simultaneously, but at different substrate (acetaldehyde) concentrations, namely, 5 μM for the low Km and 5 mM for the high Km, enzyme.

With `Nc1c(O)cccc1C(=O)O` [3-hydroxyanthranilic acid] the “inhibition of the mammalian low km enzyme” value [1] was 46%, the “inhibition of bacterial AlDH activity” value ([2]; 2 μM concentration) was 3% and the “inhibition of bacterial AlDH activity” value ([2]; 10 μM concentration) was 17%. The “% inhibition of AlDH activity” value [2] was 97%, the “inhibition of activity of the low Km enzyme” value ([3]; 2 μM concentration) was 46% and the “inhibition of activity of the low Km enzyme” value ([3]; 10 μM concentration) was 54%. The “inhibition of activity of the low Km enzyme” value ([3]; 100 μM concentration) was 76%.

`Nc1c(O)cccc1C(=O)CC(N)C(=O)O` (stereo not drawn) [3-hydroxykynurenine] was tested, and the “inhibition of the mammalian low km enzyme” value [1] was 65%, the “inhibition of bacterial AlDH activity” value ([2]; 2 μM concentration) was “+1%” and the “inhibition of bacterial AlDH activity” value ([2]; 10 μM concentration) was 55%. For the same molecule, the “% inhibition of AlDH activity” value [2] was 97%, the “inhibition of activity of the low Km enzyme” value ([3]; 2 μM concentration) was 55% and the “inhibition of activity of the low Km enzyme” value ([3]; 10 μM concentration) was 52%. For the same molecule, the “inhibition of activity of the low Km enzyme” value ([3]; 100 μM concentration) was 69%.

In the case of `O=C(O)Cc1c[nH]c2ccc(O)cc12` [5-hydroxyindol-3-ylacetic acid], the “% inhibition of AlDH activity” value [2] is reported as 4%.

`NCCc1c[nH]c2ccc(O)cc12` [5-hydroxytryptamine] was tested, and the “% inhibition of AlDH activity” value [2] was 15%.

`OCCc1c[nH]c2ccc(O)cc12` [5-hydroxytryptophol] was tested, and the “% inhibition of AlDH activity” value [2] was 7%.

In the case of `N[C@@H](Cc1c[nH]c2ccc(O)cc12)C(=O)O` [5-hydroxytrytophan], the “% inhibition of AlDH activity” value [2] is reported as 23%.

`Nc1ccccc1C(=O)O` [anthranilic acid] was tested, and the “% inhibition of AlDH activity” value [2] was 9%.

In the case of `CCN(CC)C(=S)SSC(=S)N(CC)CC` [disulfiram, reference compound], the “inhibition of the mammalian low km enzyme” value [1] is reported as 30-46%, the “inhibition of activity of the low Km enzyme” value ([3]; 2 μM concentration) is reported as 30-46% and the “inhibition of activity of the low Km enzyme” value ([3]; 10 μM concentration) is reported as 38-43%. For the same molecule, the “inhibition of activity of the low Km enzyme” value ([3]; 100 μM concentration) was 46-50%.

`O=CCc1c[nH]c2ccccc12` [indol-3-ylacetaldehyde] was tested, and the “% inhibition of AlDH activity” value [2] was 55%.

`O=C(O)Cc1c[nH]c2ccccc12` [indol-3-ylacetic acid] was tested, and the “% inhibition of AlDH activity” value [2] was 11%.

In the case of `O=C(O)C(=O)Cc1c[nH]c2ccccc12` [indol-3-ylpyruvic acid], the “inhibition of the mammalian low km enzyme” value [1] is reported as 37%, the “inhibition of bacterial AlDH activity” value ([2]; 2 μM concentration) is reported as 24% and the “inhibition of bacterial AlDH activity” value ([2]; 10 μM concentration) is reported as 29%. The “% inhibition of AlDH activity” value [2] was 94%, the “inhibition of activity of the low Km enzyme” value ([3]; 2 μM concentration) was 30% and the “inhibition of activity of the low Km enzyme” value ([3]; 10 μM concentration) was 38%. The “inhibition of activity of the low Km enzyme” value ([3]; 100 μM concentration) was 53%.

With `O=C(O)c1cc(=O)c2ccccc2[nH]1` [kynurenic acid] the “inhibition of the mammalian low km enzyme” value [1] was 30%, the “inhibition of bacterial AlDH activity” value ([2]; 2 μM concentration) was 5% and the “inhibition of bacterial AlDH activity” value ([2]; 10 μM concentration) was 30%. For the same molecule, the “% inhibition of AlDH activity” value [2] was 90%, the “inhibition of activity of the low Km enzyme” value ([3]; 2 μM concentration) was 40% and the “inhibition of activity of the low Km enzyme” value ([3]; 10 μM concentration) was 43%. The “inhibition of activity of the low Km enzyme” value ([3]; 100 μM concentration) was 43%.

With `Nc1ccccc1C(=O)CC(N)C(=O)O` (stereo not drawn) [kynurenine] the “% inhibition of AlDH activity” value [2] was 24%.

In the case of `NC(=O)c1cccnc1` [nicotinamide], the “% inhibition of AlDH activity” value [2] is reported as 7%.

For `c1ccc2c(c1)[nH]c1cnccc12` [norharman], the “% inhibition of AlDH activity” value [2] was 23%.

In the case of `O=C(O)c1ccc2ccccc2n1` [quinaldic acid], the “% inhibition of AlDH activity” value [2] is reported as 7%.

For `O=C(O)c1cccnc1C(=O)O` [quinolinic acid], the “% inhibition of AlDH activity” value [2] was 13%.

With `NCCc1c[nH]c2ccccc12` [tryptamine] the “% inhibition of AlDH activity” value [2] was 0%.

`N[C@@H](Cc1c[nH]c2ccccc12)C(=O)O` [tryptophan] was tested, and the “% inhibition of AlDH activity” value [2] was 2%.

In the case of `O=C(O)c1cc(O)c2cccc(O)c2n1` [xanthurenic acid], the “% inhibition of AlDH activity” value [2] is reported as 56%.

For `O=C(O)CCCC(=O)C(=O)O` [α-ketoadipic acid], the “% inhibition of AlDH activity” value [2] was 1%.
